# What was measured:
# Format in all cases: cell-based, newborn rats and mice
# [1] = system: oligodendrocyte precursor cells (MAG positive cells); assay: number of MAG positive cells after 18 DIVs (OPC differentiation/myelination), primary mixed culture of neurons and OL; conditions: for effect on the number of MAG positive cells (myelination of oligodendrocyte precursor cells), in words: in comparison with the blank control group / with the components alone
# Description: (§1) All experiments were approved by ethics, and the primary mixed culture of neurons and OL were carried out according to the following steps. Briefly, the forebrain of newborn rats and mice were dissociated with trypsin (Trypsin EDTA 1X, PAN BIOTECH) at 37° C. for 20 minutes. After addition of Dulbecco modified Eagle medium (DMEM, PAN BIOTECH) containing DNAase I Grade II (0.1 mg/ml, PAN BIOTECH) and 10% fetal bovine serum (FCS, GIBCO), the reaction was stopped. The cells were mechanically separated three times through a 10 ml pipette, and then centrifuged at 4° C. under 515 g for 10 minutes.
# (§2) Living cells were inoculated in 96-well plates (20000/well), which were pre-coated with poly-L-lysine (BD Falcon) and laminin (Sigma). The culture medium consists of Neurobasal (GIBCO) added with 2% B27 (GIBCO), 2 mM L-glutamine (L Glu, PAN BIOTECH), 2% P/S solution (PAN BIOTECH), 1% FCS and 10 ng/ml platelet-derived growth factor (PDGF-AA, PAN BIOTECH). The 96-well plates are stored in a humidified incubator, at a temperature of 37° C. and with an environment of air (95%) - CO2 (5%).
# (§3) A same number of cells were placed on 48-well plates, and then incubated for 12, 18 or 30 DIVs. Half of the medium were replaced every other day. A mixture or separate nutrition were added to the fresh medium (the nutrient composition prepared above, containing 2′-FL, choline and/or milk fat global membrane).
# (§4) After 12, 18 and 30 DIVs, the cells were fixed with a cold mixture of 95% ethanol and acetic acid (5%) for 5 minutes. The non-specific sites were then blocked for 15 minutes at room temperature with a phosphate buffered saline (PBS) solution containing 0.1% saponin (Sigma) and 1% FCS (GIBCO).
# At 18 DIVs, nerve cells were co-incubated with mouse monoclonal antibody MAG (dilution: 1/400, Millipore, MAB1567) and neurofilament protein antibody (dilution: 1/500, Sigma, N4142) for 2 h. Then a secondary goat […] antibody (dilution: 1/400, Sigma, SAB4600042) and a secondary goat anti-rabbit antibody (dilution: 1/400, SIGMA, SAB4600084) were used to co-incubate at room temperature for 1 h.
# (§5) ImageXpress equipped with LED lights (360/480/565 for excitation and 460/535/620 for emission) is used for 20× amplification. All images are acquired using the same settings.
# The differentiation of OPC into OL was evaluated by counting the number of MAG positive cells in cell culture. The results were expressed as the average number of cells per image and per well. The morphological maturity of MAG positive cells were assessed by measuring the average surface area of MAG positive cells in 18 DIV wells ([…]/image/well).
# (§6) Cells were inoculated on a 96-well plate and cultured for a certain period of time. Half of the culture medium was replaced every other day. Varying concentrations of mixed or separate 2′-FL mixtures were added to the special culture medium for fresh primary cells (added on day 12, 18 and 30, respectively). 6 replicas for each sample. […] The blank control group, positive control group and sample intervention group were compared, respectively. The effects of milk fat global membrane, 2′-FL and choline, alone or in mixture, on OPC population, OL maturation and differentiation, myelin formation and neurite growth was determined by immunohistochemistry (MBP, NF, A2B5). See Table 2 below for specific experimental dosage.
# In order to measure the effect of mixed nutrition or single nutrition treatment on OPC cell myelination, we evaluated the number of positive cells labelled MAG after 18 DIVs.
# [2] = system: oligodendrocyte precursor cells (MBP positive cells); assay: number of MBP positive cells after 30 DIVs (OPC/OL maturation), primary mixed culture of neurons and OL; conditions: for effect on the number of MBP positive cells (maturation of oligodendrocyte precursor cells), in words: in comparison with the blank control group / with the components alone
# Description: as §1, §2, §3, §4
# At 30 DIVs, nerve cells were co-incubated with mouse monoclonal antibody MBP (dilution: 1/1000, Novus, NBP1-05204) and neurofilament protein antibody (dilution: 1/500, Sigma, N4142) for 2 hours. Then a secondary goat anti-mouse antibody (dilution: 1/800, Sigma, SAB4600042) and a secondary goat anti-rabbit antibody (dilution: 1/400, SIGMA, SAB4600084) were used to co-incubate at room temperature for 1 h.
# as §5
# At 30 DIVs, the maturity of OL was estimated by calculating the number of MBP positive cells (average number of cells per imge, per well) and the average surface area of MBP positive cells at 30 DIVs ([…], per image, per well).
# as §6
# In order to measure the effect of mixed nutrition or single nutrition treatment on OPC cell maturation, we evaluated the number of MBP positive cells after 30DIVs.
# [3] = system: oligodendrocyte precursor cells (A2B5 positive cells); assay: number of A2B5 positive cells (number of OPCs) after 12 DIVs, primary mixed culture of neurons and OL; conditions: for effect on the number of A2B5 positive cells (proliferation of oligodendrocyte precursor cells), in words: in comparison with the blank control group / with the components alone
# Description: All experiments were approved by ethics, and the primary mixed culture of neurons and OL were carried out according to the following steps. Briefly, the forebrain of newborn rats and mice were dissociated with trypsin (Trypsin EDTA 1X, PAN BIOTECH) at 37° C. for 20 minutes. After addition of Dulbecco modified Eagle medium (DMEM, PAN BIOTECH) containing DNAase I Grade II (0.1 mg/ml, PAN BIOTECH) and 10% fetal bovine serum (FCS, GIBCO), the reaction was stopped. The cells were mechanically separated three times through a 10 ml pipette, and then centrifuged at 4° C. under 515 g for 10 minutes. Living cells were inoculated in 96-well plates (20000/well), which were pre-coated with poly-L-lysine (BD Falcon) and laminin (Sigma). The culture medium consists of Neurobasal (GIBCO) added with 2% B27 (GIBCO), 2 mM L-glutamine (L Glu, PAN BIOTECH), 2% P/S solution (PAN BIOTECH), 1% FCS and 10 ng/ml platelet-derived growth factor (PDGF-AA, PAN BIOTECH). The 96-well plates are stored in a humidified incubator, at a temperature of 37° C. and with an environment of air (95%) - CO2 (5%). […] Half of the medium were replaced every other day. A mixture or separate nutrition were added to the fresh medium (the nutrient composition prepared above, containing 2′-FL, choline and/or milk fat global membrane). After 12, 18 and 30 DIVs, the cells were fixed with a cold mixture of 95% ethanol and acetic acid (5%) for 5 minutes. The non-specific sites were then blocked for 15 minutes at room temperature with a phosphate buffered saline (PBS) solution containing 0.1% saponin (Sigma) and 1% FCS (GIBCO). […] Finally, a secondary goat anti-rabbit antibody (diluted 1/400, SIGMA, SAB460084) was used to co-incubate at room temperature for 1 h. ImageXpress equipped with LED lights (360/480/565 for excitation and 460/535/620 for emission) is used for 20× amplification. All images are acquired using the same settings. […] Cells were inoculated on a 96-well plate and cultured for a certain period of time. Half of the culture medium was replaced every other day. […] The blank control group, positive control group and sample intervention group were compared, respectively. […] See Table 2 below for specific experimental dosage.
# [4] = high dosage: 2′-FL 20, milk fat globule membrane 55, choline 6.5 mg/ml (those present)
# [5] = low dosage: 2′-FL 0.2, milk fat globule membrane 0.55, choline 0.065 mg/ml (those present)
# [6] = medium dosage: 2′-FL 2, milk fat globule membrane 5.5, choline 0.65 mg/ml (those present)
# [7] = low dosage: milk fat globule membrane 0.55 or choline 0.065 mg/ml
Structure (SMILES),"increase of the number of MAG positive cells relative to the blank control group (Cell Experiment Example 1) [1, 4]","number of MAG positive cells (mean±standard deviation) [1, 4]","effect on the number of MAG positive cells (myelination of oligodendrocyte precursor cells), in words [1]","number of MAG positive cells (mean±standard deviation) [1, 5]","increase of the number of MAG positive cells relative to the blank control group (Cell Experiment Example 1) [1, 6]","number of MAG positive cells (mean±standard deviation) [1, 6]","increase of the number of MBP positive cells relative to the blank control group (Cell Experiment Example 1) [2, 4]","number of MBP positive cells (mean±standard deviation) [2, 4]","effect on the number of MBP positive cells (maturation of oligodendrocyte precursor cells), in words [2]","number of MBP positive cells (mean±standard deviation) [2, 5]","increase of the number of MBP positive cells relative to the blank control group (Cell Experiment Example 1) [2, 6]","number of MBP positive cells (mean±standard deviation) [2, 6]","increase of the number of A2B5 positive cells relative to the blank control group (Cell Experiment Example 1) [3, 4]","number of A2B5 positive cells (mean±standard deviation) [3, 4]","effect on the number of A2B5 positive cells (proliferation of oligodendrocyte precursor cells), in words [3]","number of A2B5 positive cells (mean±standard deviation) [3, 5]","increase of the number of A2B5 positive cells relative to the blank control group (Cell Experiment Example 1) [3, 6]","number of A2B5 positive cells (mean±standard deviation) [3, 6]",other results
"CC1O[C@@H](OC2[C@H](O[C@@H]3C(CO)O[C@H](O)C(O)[C@@H]3O)OC(CO)[C@H](O)[C@H]2O)C(O)[C@H](O)[C@@H]1O (stereo partly drawn) [2′-FL, 2′-fucosyl lactose]",21.33,62.00±4.00,could increase the number of MAG positive cells,54.00±6.08,35.66,76.33±4.51,20.67,83.00±5.29,can increase the number of MBP positive cells,104.00±4.58,42.34,104.67±5.03 * *,18.33,135.00±6.08,may increase the number of A2B5 positive cells,151.33±4.73,39.33,156.00 ±5.57,–
CC(C)CCC[C@@H](C)[C@H]1CC[C@H]2[C@@H]3CCC4=CC(=NO)CC[C@]4(C)[C@H]3CC[C@]12C [Olesoxime],–,–,–,–,–,–,–,–,–,–,–,–,–,–,–,–,–,–,"number of MAG positive cells (mean±standard deviation) ([1]; positive control, 300 nM): 87.00±4.36; number of MBP positive cells (mean±standard deviation) ([2]; positive control, 300 nM): 124.00±3.61; number of A2B5 positive cells (mean±standard deviation) ([3]; positive control, 300 nM): 171.33±3.51"
"C[N+](C)(C)CCO.[Cl-] [choline, choline chloride]",40.66,81.33±3.21,could increase the number of MAG positive cells,66.33±6.03,53.33,94.00±4.58,5.67,68.00±2.65,can increase the number of MBP positive cells,113.33±5.69,71.34,133.67±4.16,-9,107.67±6.03,may increase the number of A2B5 positive cells,167.33±3.51,109,225.67±5.03,"increase of the number of MAG positive cells relative to the blank control group (Cell Experiment Example 1) [1, 7]: 25.66; increase of the number of MBP positive cells relative to the blank control group (Cell Experiment Example 1) [2, 7]: 51; increase of the number of A2B5 positive cells relative to the blank control group (Cell Experiment Example 1) [3, 7]: 50.66"

# Reference: patent US20230181608A1, “NUTRIENT COMPOSITION, FOOD INCLUDING THE SAME AND USE OF THE NUTRIENT COMPOSITION” (Heilongjiang Feihe Dairy Co., Ltd., priority 2021, published 2023)
